Data taken from US11685716B2, “Plant growth inhibiting agent, and plant growth inhibiting method using same” (NATIONAL UNIVERSITY CORPORATION KUMAMOTO UNIVERSITY, priority 2017, dated 2023).

Tests used:
[1] = test system: thale cress; test: Activities on plants: growth of thale cress on agar medium (Evaluation 1, 6); type: in vivo, thale cress (Col-0, wild-type strain); details: for plant growth inhibition effect (activity on plant growth) / twisting of root epidermal cells / abnormality in direction of root growth: thale cress Col-0, agar medium, 7 days; for twisting of root epidermal cells / abnormality in direction of root growth: scanned images
Experimental: The test compound (compound (6a)) and DMSO for a control experiment, were added at this stage and blended. Fifty ml each of the medium was dispensed in sterile No. 2 square petri dishes (Eiken Chemical Co., Ltd.) to prepare agar medium. As a plant material, Col-0, which is a wild-type strain of […] used. Seeds, after their surfaces were sterilized, were planted on the agar medium, and vernalized at 4° C. for 16 hours. Growth of the plant was carried out in a growth chamber (SANYO MLR-351) under the conditions of an illuminance of 3 at 23° C. with constant light. The agar medium was allowed to stand upright in the chamber to grow the plant for 7 days. Lids of the petri dishes used for the test were opened, the test results were recorded with a scanner, and with the scanned images, […]

[2] = test system: velvet leaf; test: Seed treatment, plant growth inhibition index (Evaluation 11); type: in vivo; parameters: key: 0: No effect; 1: Growth of the root part was inhibited 50% or less compared with non-treated area.; 2: Growth of the root part was inhibited 50% or more compared with non-treated area.; 3: Growth of the root part was substantially inhibited.; 4: Germination was inhibited
Experimental: (§1) The compound of the present invention (2 mg) was dissolved in a 1.5% Tween dimethylformamide solution (100 μL) to use as a test chemical solution.
(§2) Eight mL of sterilized water was poured to a cherry cup (100Φ×45 mm) lined with a filter paper, subsequently 81.1 μL of the sterilized water was removed, and 81.1 μL of the test chemical solution was added such that a final concentration of the compound was 800 μM.
(§3) Further, cherry cups were similarly prepared such that a final concentration of the compound was 200 μM.
(§4) Seeds (Japanese millet: 3 grains, velvet leaf: 6 grains, Ragweed: 8 grains, morning glory: 2 grains) were planted on the filter paper in the cherry cups, followed by growing the plants in a thermostatic chamber at 25° C. under a light-dark cycle in which a light period is 12 hours and a dark period is 12 hours for 6 days.
(§5) In addition, with regards to the compound (9a) and the compound (9b), the plants were tested for 7 days.
(§6) Plant growth inhibition effects of the compounds were evaluated by conversion to indexes according to the following investigation criteria.

[3] = test system: Ragweed; test: as above; type: in vivo; parameters: key: 0: No effect; 1: Growth of the root part was inhibited 50% or less compared with non-treated area.; 2: Growth of the root part was inhibited 50% or more compared with non-treated area.; 3: Growth of the root part was substantially inhibited.; 4: Germination was inhibited
Experimental: as §1, §2, §3, §4, §5, §6

[4] = test system: Japanese millet; test: as above; type: in vivo; parameters: key: 0: No effect; 1: Growth of the root part was inhibited 50% or less compared with non-treated area.; 2: Growth of the root part was inhibited 50% or more compared with non-treated area.; 3: Growth of the root part was substantially inhibited.; 4: Germination was inhibited
Experimental: as §1, §2, §3, §4, §5, §6

[5] = test system: morning glory; test: as above; type: in vivo; parameters: key: 0: No effect; 1: Growth of the root part was inhibited 50% or less compared with non-treated area.; 2: Growth of the root part was inhibited 50% or more compared with non-treated area.; 3: Growth of the root part was substantially inhibited.; 4: Germination was inhibited
Experimental: as §1, §2, §3, §4, §5, §6

[6] = test system: velvet leaf; test: Spray treatment to stems and leaves, killing weed index (Evaluation 10); type: in vivo; details: 2000 g active ingredient per hectare, two weeks later
Experimental: (§7) POA allyl phenyl ether (4.1 parts by weight), POE-POP glycol (1 part by weight), POE sorbitan laurate (0.8 parts by weight), glycerin (2.6 parts by weight), dimethylformamide (65.9 parts by weight), N-methylpyrrolidone (5.1 parts by weight), cyclohexanone (15.4 parts by weight), and aromatic hydrocarbon (5.1 parts by weight) were mixed and dissolved to prepare an emulsion. The compounds of the present invention (4 mg) were dissolved in this emulsion (100 μL) to prepare a test emulsion. In addition, POA means “polyoxyalkylene”, POE means “polyoxyethylene”, and POP means “polyoxypropylene.”
(§8) Four hundred μL of the above test emulsion was diluted with 7600 μL of water to use as a test spray liquid.
(§9) Further, 400 μL of the above test emulsion was diluted with 1600 μL of a 1% Tween20 aqueous solution to use as a spray liquid for a small amount spray test.
(§10) For a comparative spray liquid, 53 μL of a 30% pendimethalin emulsion (Gogosan emulsion: manufactured by BASF Japan) as a control pesticides was diluted with 7947 μL of water. Further, for a comparative spray liquid for a small amount spray test, 53 μL of the 30% pendimethalin emulsion was diluted with 1947 μL of water.
(§11) A 150 cm^2 pot was filled with a soil, seeds of each purple amaranth, Japanese bristlegrass, southern crabgrass, and velvet leaf were sown on the surface layer, lightly covered with a soil and grown in a greenhouse. When each plant grew to a plant height of 2 to 9 cm, the test spray liquid was sprayed to the stem and leaf parts with a small spraying machine such that an active ingredient amount was 2000 g per hectare and a sprayed liquid amount was 1000 L per hectare.
(§12) Similarly, the test spray liquid for a small amount spray test was sprayed to the stem and leaf parts with a small spraying machine such that an active ingredient amount was 2000 g per hectare and a sprayed liquid amount was 250 L per hectare.
(§13) Two weeks later, the above-ground grass weight in non-treated areas and the above-ground grass weight in treated areas, by the weed, were measured to calculate a killing weed rate by the following calculating formula.
(§14) (a) Calculating Formula of Weeding Rate Killing weed rate (%)=(above-ground grass weight in non-treated area−above-ground grass weight in treated area)/(above-ground grass weight in non-treated area)×100 (b) Killing Weed Indexes
(§15) The obtained killing weed rates were evaluated, such that a killing weed index was “10” when a killing weed rate is 100%, as “9” when a killing weed rate is 99% to 90%, “8” when a killing weed rate is 89% to 80%, “7” when a killing weed rate is 79% to 70%, “6” when a killing weed rate is 69% to 60%, “5” when a killing weed rate is 59% to 50%, “4” when a killing weed rate is 49% to 40%, “3” when a killing weed rate is 39% to 30%, “2” when a killing weed rate is 29% to 20%, “1” when a killing weed rate is 19% to 10%, and “0” when a killing weed rate is 9% to 0%.

[7] = test system: southern crabgrass; test: as above; type: in vivo; details: 2000 g active ingredient per hectare, two weeks later
Experimental: as §7, §8, §9, §10, §11, §12, §13, §14, §15

[8] = test system: Japanese bristlegrass; test: as above; type: in vivo; details: 2000 g active ingredient per hectare, two weeks later
Experimental: as §7, §8, §9, §10, §11, §12, §13, §14, §15

[9] = test system: purple amaranth; test: as above; type: in vivo; details: 2000 g active ingredient per hectare, two weeks later
Experimental: as §7, §8, §9, §10, §11, §12, §13, §14, §15

[10] = test system: thale cress; test: Plant growth inhibition index, thale cress on agar medium in test tube (Evaluation 8, 9); type: in vivo, thale cress (Col-0, wild-type strain); parameters: key: 0: No effect; 1: Growth of the root part was inhibited 50% or less compared with non-treated area.; 2: Growth of the root part was inhibited 50% or more compared with non-treated area.; 3: Growth of the root part was substantially inhibited.; 4: Germination was inhibited; details: for Index: Concentration 200 μM, 8 days (Evaluation 9, Table 2)
Experimental: 0.44% (w/v) Mixed salts for Murashige and Skoog medium (SIGMA), 1% (w/v) sucrose, and 0.05% (w/v) MES were mixed, and pH of the solution was adjusted to pH 5.7 with potassium hydroxide. 1.5% (w/v) Agar was added to the mixture, which was sterilized at 120° C. in an autoclave for 20 minutes. The test compound and dimethylformamide containing 1.5% of polyoxyethylenesorbitan monolaurate for a control experiment, were added at this stage and blended. In addition, the compound was used by adjusting an addition concentration to 200 μM. Four ml each of the medium was dispensed in sterile glass test tube ([…] RIKA GLASS CO., LTD.) to prepare agar medium.
As a plant material, Col-0, which is a wild-type strain of thale cress, was used.
Seeds, after their surfaces were sterilized, were planted on the agar medium, and the growth of the plant was carried out in a plant incubator (CFH-405) under the conditions of an illuminance of 3 at 23° C. with constant light. The plants on the agar medium were grown for 8 days in the chamber.
The plant growth inhibition effect of the compounds was evaluated by conversion to indexes according to the following investigation criteria.

[11] = thale cress Col-0, concentration of 1000 μM
[12] = 200 μM, 6 days (9a, 9b: 7 days)
[13] = sprayed liquid amount 1000 L/ha

SMILES	germination [1, 11]	plant growth inhibition index, Velvet leaf [2, 12]	plant growth inhibition index, Ragweed [3, 12]	plant growth inhibition index, Japanese millet [4, 12]	plant growth inhibition index, Morning glory [5, 12]	killing weed index, Velvet leaf ([6]; sprayed liquid amount 250 L/ha)	killing weed index, Southern crabgrass ([7]; sprayed liquid amount 250 L/ha)	killing weed index, Japanese bristlegrass ([8]; sprayed liquid amount 250 L/ha)	killing weed index, Purple amaranth ([9]; sprayed liquid amount 250 L/ha)	also measured
CCCCOn1cccc1C(=O)O [Compound 6f, 1-Butoxy-1H-pyrrole-2-carboxylic acid]	no germination was observed	–	–	–	–	–	–	–	–	germination ([1]; thale cress Col-0, concentration of 500 μM): substantially no germination was observed
O=C(O)c1cccn1O [Compound 6c, 1-Hydroxy-1H-pyrrole-2-carboxylic acid]	–	–	–	–	–	–	–	–	–	plant growth inhibition effect (activity on plant growth) [1]: no activity was observed
CCCCCCCCCOn1cccc1C(=O)O [Compound 8b]	–	0	3 (Growth of the stem and leave parts was inhibited 30% or more compared with non-treated area, or growth of the only root part was inhibited 60% or more compared with non-treated area.)	3 (Growth of the stem and leave parts was inhibited 30% or more compared with non-treated area, or growth of the only root part was inhibited 60% or more compared with non-treated area.)	3 (Growth of the stem and leave parts was inhibited 30% or more compared with non-treated area, or growth of the only root part was inhibited 60% or more compared with non-treated area.)	6 (“6” when a killing weed rate is 69% to 60%)	2 (“2” when a killing weed rate is 29% to 20%)	5 (“5” when a killing weed rate is 59% to 50%)	8 (“8” when a killing weed rate is 89% to 80%)	plant growth inhibition index, Velvet leaf ([2]; 800 μM, 6 days): 8 (Growth of the stem and leave parts was inhibited 80% or more compared with non-treated area.); plant growth inhibition index, Ragweed ([3]; 800 μM, 6 days): 9 (Growth of the stem and leave parts was inhibited 90% or more compared with non-treated area.); plant growth inhibition index, Japanese millet ([4]; 800 μM, 6 days): 10; plant growth inhibition index, Morning glory ([5]; 800 μM, 6 days): 8 (Growth of the stem and leave parts was inhibited 80% or more compared with non-treated area.); killing weed index, Velvet leaf [6, 13]: 0 (“0” when a killing weed rate is 9% to 0%); killing weed index, Southern crabgrass [7, 13]: 4 (“4” when a killing weed rate is 49% to 40%); killing weed index, Japanese bristlegrass [8, 13]: 5 (“5” when a killing weed rate is 59% to 50%); killing weed index, Purple amaranth [9, 13]: 3 (“3” when a killing weed rate is 39% to 30%); index on the plant growth inhibition effect ([10]; 200 μM, 8 days (Evaluation 8)): 4
CCCCCCCCCOn1cc(Cl)cc1C(=O)O [Compound 9b]	–	0	0	0	3 (Growth of the stem and leave parts was inhibited 30% or more compared with non-treated area, or growth of the only root part was inhibited 60% or more compared with non-treated area.)	2 (“2” when a killing weed rate is 29% to 20%)	2 (“2” when a killing weed rate is 29% to 20%)	3 (“3” when a killing weed rate is 39% to 30%)	10 (“10” when a killing weed rate is 100%)	Index [10]: 3
CCCOn1cccc1C(=O)O [Compound 6d, 1-Propoxy-1H-pyrrole-2-carboxylic acid]	No germinations were observed	–	–	–	–	–	–	–	–	–
CCOn1cccc1C(=O)O [Compound 6b, 1-Ethoxy-1H-pyrrole-2-carboxylic acid]	–	–	–	–	–	–	–	–	–	twisting of root epidermal cells / abnormality in direction of root growth [1]: epidermal cells of the roots were twisted leftward and abnormality in a direction of the root growth was observed
O=C(O)c1cccn1OCc1ccccc1 [Compound 6g, 1-(Benzyloxy)-1H-pyrrole-2-carboxylic acid]	–	–	–	–	–	–	–	–	–	plant growth inhibition effect (activity on plant growth) [1]: a plant growth inhibiting effect was observed even more than when each of the compounds (6d) to (6f)
C#CC(C)(C)NC(=O)c1cc(Cl)cc(Cl)c1 [Propyzamide, reference compound]	–	–	–	–	–	–	–	–	–	twisting of root epidermal cells / abnormality in direction of root growth [1]: abnormality in a direction of the root growth was also observed
CC(C)On1cccc1C(=O)O [Compound 6e, 1-Isopropoxy-1H-pyrrole-2-carboxylic acid]	No germinations were observed	–	–	–	–	–	–	–	–	–
CCCCCOn1cc(-c2ccccc2)cc1C(=O)O [Compound 9a, 1-Pentyloxy-4-phenyl-1H-pyrrole-2-carboxylic acid]	–	0	0	3 (Growth of the stem and leave parts was inhibited 30% or more compared with non-treated area, or growth of the only root part was inhibited 60% or more compared with non-treated area.)	0	3 (“3” when a killing weed rate is 39% to 30%)	2 (“2” when a killing weed rate is 29% to 20%)	3 (“3” when a killing weed rate is 39% to 30%)	8 (“8” when a killing weed rate is 89% to 80%)	Index [10]: 4
